{"source": "patent US5308843A", "about": "“Method of inhibiting mammalian topoisomerase II and malignant cell growth in mammals, with substituted (S)-3-methyl-7-oxo-2,3-dihydro-7H-pyrido[1,2,3-de][1,4 ]-benzoxazine(and-benzothiazine)-6-carboxylic acids” (Sterling Drug Inc., priority 1990, dated 1994)", "key": {"[1]": {"assay": "In vivo antitumor assay, colon adenocarcinoma No. 38 (SC)", "set-up": "species or system mice", "conditions": "mouse, in vivo; Colon 38 (SC); drug SC; QD3-9; read-out: Maximum Tolerated Total Dose", "source_text": "(§1) In vivo Antitumor Assay Procedure\n(§2) Mice: Inbred: C3H/He; and Hybrids: B6D2F1 (C57BL/6 females×DBA/2 males), CD2F1 (Balb/c females×DBA/2 males) and B6C3F1 (C57BL/6×C3H) were bred at Wayne State University from strains obtained from the Frederick Cancer Research Facility, Frederick, Md. or from commercial suppliers.\n(§3) Tumors: Murine Tumors: P388 leukemia and the following transplantable solid tumors of mice were used for in vivo testing: B16 melanoma, pancreatic ductal adenocarcinoma No. 03, colon adenocarcinoma No. 38 and mammary ductal adenocarcinoma No. 16/C. All tumors are in the Developmental Therapeutics Program frozen tumor repository, maintained by the Biological Testing Branch, Frederick, Md. Each has a detailed description, code identification number, and list of references at the National Tumor Repository. Tumors were maintained in the mouse strain of origin and were transplanted in the appropriate F1 hybrid (or the strain of origin) for therapy trials. The mice were supplied food and water ad libitum.\n(§4) Chemotherapy: For pancreatic ductal adenocarcinoma No. 03, colon adenocarcinoma No. 38, and mammary ductal adenocarcinoma No. 16, the following methods were used to help ensure a more uniform tumor burden per mouse (thus reducing the requirement for greater numbers of mice per group), bilateral tumor implants were used. The animals necessary to begin an experiment were pooled, implanted bilaterally s.c. on day zero with 30-60-mg tumor fragments using a 12-gauge trocar, and again pooled before randomization to the various treatment and control groups. Chemotherapy was started within three days after tumor implantation while the number of cells per mouse was relatively small (1×10^7 -1×10^8 cells).\n(§5) End Points for Assessing Antitumor Activity: Quantitative end points used to assess antitumor activity included % Increased Life Span (% ILS), Tumor Cell Kill (Log10 kill), and Tumor Growth Inhibition (T/C). Long Term Survivors (45 or 60 day) were excluded from calculations of % ILS and Tumor Cell Kill.\n(§6) Endpoints were calculated as follows: [formula] where Dt is the median day of death for treated and Dc is the median day of death for control groups.\n(§7) T/C Value: Tumors were measured with a caliper once or twice weekly (as needed) until either tumors exceeded 1600 mg or cure was assured. Tumor weights were estimated from two-dimensional measurements: Tumor Weight (mg)=(a×b^2)/2, where a and b are the tumor length and width (mm), respectively. Measurements were carried out simultaneously in both the treatment and control groups. When the control group tumors reached approximately 750-1500 mg in size (median of group), the median tumor weight of each group was determined (including zeros). The T/C value in percent is an indication of antitumor effectiveness. […]. […]"}, "[2]": {"tested_on": "colon adenocarcinoma No. 38", "assay": "In vivo antitumor assay, colon adenocarcinoma No. 38 (SC)", "set-up": "species or system mice", "source_text": "as §1, §2, §3, §4, §5, §6, §7"}, "P388 leukemia": {"tested_on": "P388 leukemia", "assay": "In vivo antitumor assay, P388 leukemia (IP)", "set-up": "species or system mice", "conditions": "for % ILS / Long Term Survivors: P388(IP) 10^6 cells, drug IP", "source_text": "as §1, §2, §3\n(§8) For P388 leukemia and B16 melanoma studies the tumor cells were implanted IP on day zero and treatment was started on day one (also IP). Titered controls were also included to facilitate the calculation of tumor cell kill.\nas §5, §6\n(§9) The log10 cell kill was calculated from the following formula: [formula] where T-C is the tumor difference in the median day of death between the treated (T) and the control (C) groups and Td is the tumor doubling time (in days), the latter estimated from the best fit straight line from a log-linear growth plot of the control-group tumors in exponential growth. The conversion of the T-C values to log10 cell kill is possible because the Td for tumors regrowing post-treatment approximated the Td values of the tumors in untreated control mice."}, "[3]": {"assay": "In vivo antitumor assay, P388 leukemia (IP)", "set-up": "species or system mice", "conditions": "mouse, in vivo, P388(IP) 10^6 cells, drug IP, read-out: Maximum Tolerated Total Dose", "source_text": "as §1, §2, §3, §8, §5, §6, §9"}, "several tumor systems": {"tested_on": "several tumor systems", "assay": "Antitumor activity in mice against several tumor systems (overall statement)", "assay_type": "in vivo", "source_text": "as §1, §2\nas §3, with “libitum. […]” for “libitum.”\nEnd Points for Assessing Antitumor Activity: Quantitative end points used to assess antitumor activity included % Increased Life Span (% ILS), Tumor Cell Kill (Log10 kill), and Tumor Growth Inhibition (T/C). […]"}}, "note": "“Also recorded” adds a separate entry of the source.", "data": [{"smiles": "Cc1cc(-c2c(F)cc3c(=O)c(C(=O)O)cn4c3c2SC[C@@H]4C)cc(C)n1", "note": "[Example 5, (S)-10-(2,6-Dimethyl-4-pyridinyl)-9-fluoro-3-methyl-7-oxo-2,3-dihydro-7H-pyrido[1,2,3-de][1,4]benzothiazine-6-carboxylic acid]", "values": [{"measurement": "MTD", "setting": "[1]", "result": 504, "unit": "mg/kg"}, {"measurement": "Long Term Survivors", "setting": "[2]; Colon 38 (SC), drug SC, QD3-9, 504 mg/kg total, footnote 4: Cure, no tumor evident, day 119", "result": "1/5"}, {"measurement": "% T/C", "setting": "[2]; Colon 38 (SC), drug SC, QD3-9, at maximum tolerated total dose 504 mg/kg", "result": 0, "unit": "%"}, {"measurement": "antitumor activity (in words)", "setting": "[2]; Colon Adenocarcinoma 38", "result": "Cure; no tumor evident; day 119; also recorded: clearly active; also recorded: highly active"}, {"measurement": "% ILS", "setting": "P388 leukemia; QD1,5,9, 1014 mg/kg total", "result": 90, "unit": "%"}, {"measurement": "Long Term Survivors", "setting": "P388 leukemia; QD1,5,9, 1014 mg/kg total", "result": "0/6"}, {"measurement": "% ILS", "setting": "P388 leukemia; QD1-7, 504 mg/kg total", "result": 92, "unit": "%"}, {"measurement": "Long Term Survivors", "setting": "P388 leukemia; QD1-7, 504 mg/kg total", "result": "0/5"}, {"measurement": "antitumor activity (in words)", "setting": "P388 leukemia; P388, 90% ILS", "result": "excellent activity"}, {"measurement": "log10 tumor cell kill", "setting": "P388 leukemia; P388, equal to 90% ILS", "result": "5.2-7.0 log10"}, {"measurement": "MTD", "setting": "[3]; QD1,5,9, vehicle 5% EtOH, 1% NaHCO3, 0.3% tween40 (pH 8.3)", "result": 1010, "unit": "mg/kg"}, {"measurement": "MTD", "setting": "[3]; QD1-7, vehicle 3% EtOH, 3% NaHCO3, 1% tween40", "result": 504, "unit": "mg/kg"}, {"measurement": "antineoplastic activity (in words)", "setting": "several tumor systems", "result": "found to possess antineoplastic activity as evidenced by its activity in reducing the size of and curing tumors, and increasing the survival time of the mice"}]}]}
